Reference: US20030108610A1, “Methods and compositions for the delivery of pharmaceutical agents and/or the prevention of adhesions” (priority 1996, published 2003)

What was measured:
[1] = 20% w/w poloxamer 407F
Method: Hydrophilic co-surfactants in the form of fatty acid soaps (i.e. sodium oleate, sodium laurate, sodium caprate, and sodium caprylate) were obtained from Nu-Chek Prep. (Elysian, Minn.).
For phase behavior studies, samples were loaded into 5 ml Wheaton vacuoles (Fisher Scientific, Pittsburgh, Pa.), and flame-sealed. The vacuoles were then immersed in a constant temperature bath. For temperatures less than 60° C., phase behavior was determined in a water bath (Koehler, Bohemia, N.Y.). At higher temperatures an oil bath (Haake, model DC3, Germany) was utilized. Temperature was raised in two degree increments from ca. 1° C. to 120° C. Samples were allowed to equilibrate for at least 1 hour at constant temperature prior to examination. Since the cubic liquid crystalline phase is isotropic (i.e. not birefringent), the determination of the gel boundary is somewhat subjective. Once equilibrium was reached, the vials were simply inverted and gravity was allowed to determine if the sample was in the sol or gel state.

[2] = Drug solubilization in poloxamer 407-water systems, apparent distribution coefficient micellar/aqueous phase; assay type: physicochemical
Method: The next day the sample was warmed momentarily to 40° C. to hasten solubilization. This process was repeated two or three times to ensure saturation. […] Prior to analysis, the samples were filtered through a 0.2 μm nylon filter syringe to remove unsolubilized drug. Samples were assayed for solubilized drug concentrations by absorbance spectroscopy (see below).
Drug Concentration Determinations. The samples were diluted to a suitable concentration with ethanol (for water insoluble drugs) or DI water. Drug concentrations were measured at the appropriate wavelength for each drug (see Table I) using a UV/Vis spectrophotometer (Beckman model DU-65). Concentrations were determined using Beer's law from the appropriate calibration curve (Table II). Gentamicin sulfate determination was performed by the UCSD Medical Center laboratory.
Where S and So are the concentration of solubilized drug in the presence and absence of poloxamer, respectively.

[3] = In-vitro release rate of drugs in poloxamer gels; assay type: physicochemical; conditions: within the same poloxamer formulations
Method: In-vitro release rate of drugs in poloxamer gels. The in-vitro release rates of drugs in poloxamer-based gels were determined using a modified USP dissolution apparatus (Hanson Research model SR6) equipped with enhancer cells. […] Membranes (1.2 μm cellulose ester membranes, 25 mm diameter, type RAWP) were presoaked in phosphate buffer and placed on the cell. Approximately 0.6 mL of sample in the fluid sol phase was then loaded into each of the enhancer cells. The cells were subsequently closed and the gel phase was allowed to form at room temperature prior to introduction into the dissolution vessels. The dissolution paddles were rotated at a speed of 100 rpm (approximating the hydrodynamic stress found at the peritoneal cavity) and were positioned approximately 1 cm from the top of the cells for all experiments. The in-vitro release of drug from the gels was monitored over a period of 4 hr. One mL samples were collected every 0.5 hr. The vessel was refilled with fresh buffer every time a sample aliquot was removed, and each sample was run in duplicate.

Row | SMILES | soap concentration required to melt / completely suppress the 20% poloxamer 407F gel [1] [%] | partitioning between poloxamer micelle and bulk aqueous phase [2] | differences in diffusion coefficients or mean dissolution times (MDT) between drugs [3]
1 | CCCCCCCC(=O)[O-].[Na+] [8:0 soap, sodium caprylate] | ~11.5 |  | 
2 | CCCCCCCCCCCC(=O)[O-].[Na+] [12:0 soap, sodium laurate] | 2.5 |  | 
3 | CCCCCCCCCC(=O)[O-].[Na+] [sodium caprate] | > 5 |  | 
4 | Cc1ccc(C(=O)c2ccc(CC(=O)O)n2C)cc1 [sodium tolmetin, Tolmetin Sodium] |  | partitions almost entirely into the bulk aqueous phase | no differences were observed
